Data as given in ChEMBL document CHEMBL2074326 (Proc Natl Acad Sci U S A, 2004).

Experiments:
[1] = target: T1, Solute carrier organic anion transporter family member 4C1 (Homo sapiens, UniProt Q6ZQN7); assay: TP_TRANSPORTER: inhibition of Digoxin uptake in OATP4C1-expressing MDCK cells; format: functional, cell-based
T1 sequence (Q6ZQN7 whole entry): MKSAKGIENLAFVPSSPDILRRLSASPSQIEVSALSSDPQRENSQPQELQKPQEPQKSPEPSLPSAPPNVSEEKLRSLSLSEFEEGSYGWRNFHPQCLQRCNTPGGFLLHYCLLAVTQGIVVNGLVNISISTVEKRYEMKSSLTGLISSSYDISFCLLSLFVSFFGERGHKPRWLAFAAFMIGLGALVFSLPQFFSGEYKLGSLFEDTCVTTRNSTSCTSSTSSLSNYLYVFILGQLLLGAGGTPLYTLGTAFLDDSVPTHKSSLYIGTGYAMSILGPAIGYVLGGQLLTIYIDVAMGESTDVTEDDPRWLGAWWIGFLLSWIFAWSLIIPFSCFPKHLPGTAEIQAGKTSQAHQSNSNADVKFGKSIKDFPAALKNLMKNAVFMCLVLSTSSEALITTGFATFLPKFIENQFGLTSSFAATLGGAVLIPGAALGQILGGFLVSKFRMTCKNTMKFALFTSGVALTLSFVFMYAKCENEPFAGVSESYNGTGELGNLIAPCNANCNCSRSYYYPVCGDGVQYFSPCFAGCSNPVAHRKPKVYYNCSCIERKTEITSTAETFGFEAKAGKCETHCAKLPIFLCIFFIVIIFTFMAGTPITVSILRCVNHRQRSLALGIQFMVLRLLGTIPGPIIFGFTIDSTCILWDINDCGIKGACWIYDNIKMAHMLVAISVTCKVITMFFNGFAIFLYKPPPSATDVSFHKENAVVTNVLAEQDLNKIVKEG

[2] = target: T1, Solute carrier organic anion transporter family member 4C1; assay: TP_TRANSPORTER: inhibition of Triiodothyronine uptake in OATP4C1-expressing MDCK cells; format: functional, cell-based
[3] = substrate: N[C@@H](Cc1cc(I)c(Oc2ccc(O)c(I)c2)c(I)c1)C(=O)O; assay: cells, lysate or membranes named
Description: (§1) TP_TRANSPORTER: cell accumulation in OATP4C1-expressing MDCK cells

[4] = substrate: C[C@H]1O[C@@H](O[C@H]2[C@@H](O)C[C@H](O[C@H]3[C@@H](O)C[C@H](O[C@H]4CC[C@@]5(C)[C@H](CC[C@@H]6[C@@H]5C[C@@H](O)[C@]5(C)[C@@H](C7=CC(=O)OC7)CC[C@]65O)C4)O[C@@H]3C)O[C@@H]2C)C[C@H](O)[C@@H]1O; assay: cells, lysate or membranes named
Description: as §1

C[C@]12CC[C@H](O)C[C@H]1CC[C@@H]1[C@@H]2C[C@@H](O)[C@]2(C)[C@@H](C3=CC(=O)OC3)CC[C@]12O [DIGOXIGENIN]
IC50 [1]: 490 nM

N[C@@H](Cc1cc(I)c(Oc2cc(I)c(O)c(I)c2)c(I)c1)C(=O)O [LEVOTHYROXINE]
IC50 [2]: 8000 nM

C[C@H]1O[C@@H](O[C@H]2[C@@H](O)C[C@H](O[C@H]3[C@@H](O)C[C@H](O[C@H]4CC[C@@]5(C)[C@H](CC[C@@H]6[C@@H]5CC[C@]5(C)[C@@H](C7=CC(=O)OC7)CC[C@]65O)C4)O[C@@H]3C)O[C@@H]2C)C[C@H](O)[C@@H]1O [DIGITOXIN]
IC50 [1]: 120 nM

B1: Solute carrier organic anion transporter family member 4C1 (Homo sapiens) (protein)
chain: MKSAKGIENLAFVPSSPDILRRLSASPSQIEVSALSSDPQRENSQPQELQKPQEPQKSPEPSLPSAPPNVSEEKLRSLSLSEFEEGSYGWRNFHPQCLQRCNTPGGFLLHYCLLAVTQGIVVNGLVNISISTVEKRYEMKSSLTGLISSSYDISFCLLSLFVSFFGERGHKPRWLAFAAFMIGLGALVFSLPQFFSGEYKLGSLFEDTCVTTRNSTSCTSSTSSLSNYLYVFILGQLLLGAGGTPLYTLGTAFLDDSVPTHKSSLYIGTGYAMSILGPAIGYVLGGQLLTIYIDVAMGESTDVTEDDPRWLGAWWIGFLLSWIFAWSLIIPFSCFPKHLPGTAEIQAGKTSQAHQSNSNADVKFGKSIKDFPAALKNLMKNAVFMCLVLSTSSEALITTGFATFLPKFIENQFGLTSSFAATLGGAVLIPGAALGQILGGFLVSKFRMTCKNTMKFALFTSGVALTLSFVFMYAKCENEPFAGVSESYNGTGELGNLIAPCNANCNCSRSYYYPVCGDGVQYFSPCFAGCSNPVAHRKPKVYYNCSCIERKTEITSTAETFGFEAKAGKCETHCAKLPIFLCIFFIVIIFTFMAGTPITVSILRCVNHRQRSLALGIQFMVLRLLGTIPGPIIFGFTIDSTCILWDINDCGIKGACWIYDNIKMAHMLVAISVTCKVITMFFNGFAIFLYKPPPSATDVSFHKENAVVTNVLAEQDLNKIVKEG
Km [3]: 5.9 µM | Km [4]: 7.8 µM
